Values joined by “and” are separate entries in the source; they are usually repeats but may differ in a detail not shown here. Identical values can stand only once. Square brackets hold non-standard residues; d marks the D form. Peptide text beside a SMILES is read from it.

These results are taken from patent US11331364B2, “Use for JNK inhibitor molecules for treatment of various diseases” (Xigen Inflammation Ltd., priority 2014, dated 2022).

The subject of the experiment is rat model of kidney bilateral ischemia reperfusion. Put plainly: Kidney bilateral ischemia reperfusion, tubular histological scores, Sprague-Dawley rats. Type of experiment: in vivo. How it is done: Male Sprague-Dawley rats weighing 200-250 g at delivery were used (Charles River Laboratories, L'Arbresle, France). Animals were delivered to the laboratory at least 5 days before the experiments during which time they were acclimatized to laboratory conditions. This study included 3 groups of 11-12 rats each, as follow:
The protocol of warm renal ischemia was similar to that previously described (Pechman K R et al., 2009). Briefly, under general anesthesia (pentobarbital; 60 mg/kg, i.p. and atropine; 1 mg/kg, i.p.), both renal pedicles were isolated and clamped for 40 minutes using atraumatic clamps. After this time, clamps were released to start reperfusion. Animals were maintained at 37° C. using a thermo-regulated system (TCAT-2LV Controller, Physitemp Instruments, Clifton, N.J., USA) during the surgery. All the animals were sacrificed 24 hours after the release of both vascular clamps (reperfusion). Sham-operated animals underwent the same surgical procedure without clamping of the kidney vessels.
XG-104 or vehicle (0.9% NaCl) were administered into the tail vein (i.v.) at the dose of 2 mg/kg twenty minutes after the release of the second vascular clamp. Intravenous administrations into the tail vein were performed using the volume of 1 mL/kg.
After sacrifice, kidneys were removed, cleaned from all connective tissue and capsule and weighted on an electronic balance (VWR, France). One kidney was transferred in formalin solution 10% (Sigma Aldrich, France) for at least 24 h and then transferred in ethanol 70% for further histological analysis performed by Histalim (Montpellier, France). Right and left kidneys were randomly chosen. Kidney samples were fixed in 10% formalin during 72 hours, transferred into 70% ethanol, then embedded in paraffin blocks by Histalim (Montpellier, France). One longitudinal section (3 to 5 µm) was made per block. Kidney sections of paraffin embedded tissue were stained by hematoxylin and eosin (H&E). All the slides were digitalized at ×20 magnitude using Nanozoomer 2.0 HT from Hamamatsu (Hamamatsu, Japan). Each tissue section was examined histologically in a blinded manner to determine if tubular changes were present. The severity of each finding was then graded as follows:
Tubular damage score consisted of either degeneration/necrosis, tubular epithelial vacuolation, regeneration (basophil tubules), and tubular cast: […]

Where [1] appears, read: 2 mg/kg i.v. after reperfusion, 24 hours.
Setting [2] is: 2 mg/kg i.v. after reperfusion, 24 hours, listed as XG-104.

`CC(C)C[C@H](NC(=O)[C@H](CC(N)=O)NC(=O)[C@H](CC(C)C)NC(=O)[C@@H](NC(=O)[C@@H](C)NC(=O)[C@@H]1CCCN1C(=O)[C@H](CCCNC(=N)N)NC(=O)[C@@H](CCCCN)NC(=O)[C@@H]1CCCN1C(=O)[C@H](CCCNC(=N)N)NC(=O)[C@@H](CCCNC(=N)N)NC(=O)[C@H](CCCNC(=N)N)NC(=O)[C@H](CCCNC(=N)N)NC(=O)[C@H](CCC(N)=O)NC(=O)[C@@H](CCCNC(=N)N)NC(=O)[C@H](CCCNC(=N)N)NC(=O)[C@H](CCCCN)NC(=O)[C@H](CCCCN)NC(=O)[C@H](N)CCCNC(=N)N)[C@@H](C)O)C(=O)N[C@H](Cc1ccccc1)C(N)=O` [SEQ ID NO: 172, rKKRrQRRrRPkRPaTLNLf] (H-[dR]KKR[dR]QRR[dR]RP[dK]RP[dA]TLNL[dF]-NH2; N-terminus assumed): under setting [1], the “animals with degeneration/necrosis score of 1” value is given as 1/11 and the “total tubular score (mean)” value came to 6.00±1.26. Besides, under setting [2], the “animals with degeneration/necrosis score of 4” value is 1/12 and 1/11; the “mean basophilic tubule score” value was 1.33±0.65 and 1.73±0.47; the “mean tubular epithelial degeneration/necrosis score” value was 2.67±0.65 and 2.18±0.75. In addition, the tubular damages entry (2 mg/kg i.v., vs IR/Vehicle) is recorded as “significant beneficial effects on tubular damages”.
